# In patent publication US20250129092A1, “COMPOUNDS USEFUL IN MODULATION OF AHR SIGNALLING” (JAGUAHR THERAPEUTICS PTE LTD, priority 2021, published 2025):
# Columns and labels:
# AhR [1] = molecular target: T1, AhR (Homo sapiens, UniProt P35869); test: AhR antagonism in human PBMCs - inhibition of IL-22 release; type: cell-based; set-up: endogenous in cells; details: human PBMCs activated with CD3/CD28 agonist mixture, 72 hrs, IL-22 ELISA; average; read-out: hPBMC Inhibition of CD3/CD28 induced IL-22 release: av. pIC50 (converted)
# T1 sequence (P35869 11-848): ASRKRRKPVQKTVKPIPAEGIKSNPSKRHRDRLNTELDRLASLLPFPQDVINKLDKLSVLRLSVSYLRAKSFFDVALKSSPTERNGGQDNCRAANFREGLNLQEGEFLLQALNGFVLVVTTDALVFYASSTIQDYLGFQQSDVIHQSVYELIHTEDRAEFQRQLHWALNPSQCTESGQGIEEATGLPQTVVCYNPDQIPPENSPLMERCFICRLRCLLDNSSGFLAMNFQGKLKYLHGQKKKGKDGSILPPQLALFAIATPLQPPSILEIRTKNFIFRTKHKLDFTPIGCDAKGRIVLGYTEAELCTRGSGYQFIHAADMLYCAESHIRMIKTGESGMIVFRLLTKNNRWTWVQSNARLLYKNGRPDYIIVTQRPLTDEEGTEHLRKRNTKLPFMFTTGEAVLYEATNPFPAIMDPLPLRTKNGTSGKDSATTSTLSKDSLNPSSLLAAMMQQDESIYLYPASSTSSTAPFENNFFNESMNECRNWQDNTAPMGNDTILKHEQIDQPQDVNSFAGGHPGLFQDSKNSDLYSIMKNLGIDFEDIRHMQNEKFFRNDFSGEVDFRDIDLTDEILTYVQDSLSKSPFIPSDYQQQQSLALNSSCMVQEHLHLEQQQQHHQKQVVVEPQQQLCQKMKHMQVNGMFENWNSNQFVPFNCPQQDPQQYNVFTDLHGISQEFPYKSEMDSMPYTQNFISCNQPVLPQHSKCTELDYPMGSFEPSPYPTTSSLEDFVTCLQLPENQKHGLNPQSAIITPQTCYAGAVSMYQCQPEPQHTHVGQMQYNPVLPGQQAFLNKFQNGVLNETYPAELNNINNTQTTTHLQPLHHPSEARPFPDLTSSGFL
# Excerpt: In Vitro Assay 3: AhR Antagonism in Human Peripheral Blood Mononuclear Cells (PBMCs)-Inhibition of Interleukin-22 (IL-22) Release.
# PBMCs were isolated from human peripheral blood using Lymphoprep™ and diluted to 1×10^6 cells per ml in RPMI media containing […] foetal bovine serum, 1% penicillin-streptomycin and 1% non essential amino acids. PBMCs were subsequently activated with 1p1 per 100,000 cells of a CD3/CD28 agonist mixture (human T Cell TransAct™ (Miltenyi Biotec)) and then plated at 100,000 cells per well in a round bottom 96 well tissue culture plate. One hour after stimulation seven concentrations of each test compound or vehicle (final [DMSO] 0.2%) were added. The plates were then placed in an incubator at 37° C., ≥85% humidity, 5% […] for 72 hrs before the media was removed and stored at −20° C. until cytokine analysis. IL-22 was measured using human IL-22 DuoSet ELISA (R&D systems) according to the manufacturer's instructions.
# AhR [2] = molecular target: T1, AhR; test: AhR antagonism in U937 cells (Promega P450-Glo assay); type: cell-based; set-up: endogenous in cells; host or cells: U937 cells; details: CYP1A1 activity readout (Luciferin-CEE), head names VAF347, average, read-out: U937 Antagonist pIC50-VAF347: av. pIC50 (converted)
# Method: In Vitro Assay 1: AhR Antagonism in U937 Cells (Promega P450-Glo™ Assay)
# AhR antagonism was assessed in LJ937 cells (myeloid lineage cell line derived from a human histiocytic lymphoma). Ligand binds the AhR in the cytoplasm, and the AhR-ligand complex translocates to the nucleus and forms a heterodimer with AhR nuclear translocator (Arnt). This complex binds the xenobiotic response element (XRE) in the 5′ upstream region of the CYP1A1 promoter, enhancing CYP1A1 expression. CYP1A1 activity is subsequently determined by assessing the conversion of Luciferin-CEE to luciferin, which in turn reacts with luciferase to produce light. The amount of light produced is directly proportional to cytochrome P450 activity. U937 cells in Ultraculture serum free media (Lonza) were plated at 100,000 cells per well in a round bottom 96 well tissue culture plate. […] The plates were then placed in an incubator at 37° C., ≥85% humidity, 5% CO2 for 24 hrs. After aspiration of the supernatant the CYP1A1 substrate Luciferin-CEE ([Final] 83 μM) was added and incubated for 3 hrs before the reaction was stopped by adding luciferin detection reagent and luminescence was read after 20 minutes.
structure (smiles),measurement,setting,value
"Cc1ncc(-c2nc3c(c(N[C@@H]4CCc5[nH]c6ccccc6c5C4)n2)OCC(CN(C)C)N3)s1 (mixture of isomers) [Example 38, 7-[(dimethylamino)methyl]-2-(2-methylthiazol-5-yl)-N-[(3R)-2,3,4,9-tetrahydro-1H-carbazol-3-yl]-7,8-dihydro-6H-pyrimido[5,4-b][1,4]oxazin-4-amine]",IC50,AhR [1],89.1 nM
same,IC50,AhR [2],66.1 nM
"Cc1ncc(-c2nc3c(c(N[C@@H]4Cc5cccc6[nH]cc(c56)C4)n2)OCCN3)s1 (single isomer, unassigned) [Example 61]",IC50,AhR [1],1260 nM
same,IC50,AhR [2],339 nM
"Cc1ncc(-c2nc3c(c(N[C@H]4Cc5cccc6[nH]cc(c56)C4)n2)OCCN3)s1 (single isomer, unassigned) [Example 62]",IC50,AhR [1],132 nM
same,IC50,AhR [2],50.1 nM
"Fc1cncc(-c2nc3c(c(NCCc4c[nH]c5ccccc45)n2)OCCN3)c1 [Example 1, 2-(5-fluoro-3-pyridyl)-N-[2-(1H-indol-3-yl)ethyl]-7,8-dihydro-6H-pyrimido[5,4-b][1,4]oxazin-4-amine]",IC50,AhR [1],1.91 nM
same,IC50,AhR [2],0.724 nM
"Fc1ccc(-c2nc3c(c(NCCc4c[nH]c5ccccc45)n2)OCCN3)cc1 [Example 2, 2-(4-fluorophenyl)-N-[2-(1H-indol-3-yl)ethyl]-7,8-dihydro-6H-pyrimido[5,4-b][1,4]oxazin-4-amine]",IC50,AhR [1],56.2 nM
same,IC50,AhR [2],25.1 nM
"Fc1cc(F)cc(-c2nc3c(c(NCCc4c[nH]c5ccccc45)n2)OCCN3)c1 [Example 3, 2-(3,5-difluorophenyl)-N-[2-(1H-indol-3-yl)ethyl]-7,8-dihydro-6H-pyrimido[5,4-b][1,4]oxazin-4-amine]",IC50,AhR [1],3.98 nM
same,IC50,AhR [2],3.55 nM
"Fc1cncc(-c2nc3c(c(N[C@@H]4CCc5[nH]c6ccccc6c5C4)n2)OCCN3)c1 [Example 4, 2-(5-fluoro-3-pyridyl)-N-[(3R)-2,3,4,9-tetrahydro-1H-carbazol-3-yl]-7,8-dihydro-6H-pyrimido[5,4-b][1,4]oxazin-4-amine]",IC50,AhR [1],83.2 nM
same,IC50,AhR [2],16.2 nM
"CC1COc2c(NCCc3c[nH]c4ccccc34)nc(-c3cncc(F)c3)nc2N1 (stereo not drawn) [Example 5, 2-(5-fluoro-3-pyridyl)-N-[2-(1H-indol-3-yl)ethyl]-7-methyl-7,8-dihydro-6H-pyrimido[5,4-b][1,4]oxazin-4-amine]",IC50,AhR [1],0.955 nM
same,IC50,AhR [2],1.86 nM
"CC(C)N1CCOc2c(NCCc3c[nH]c4ccccc34)nc(-c3cncc(F)c3)nc21 [Example 6, 2-(5-fluoro-3-pyridyl)-N-[2-(1H-indol-3-yl)ethyl]-8-isopropyl-6,7-dihydropyrimido[5,4-b][1,4]oxazin-4-amine]",IC50,AhR [1],1.35 nM
same,IC50,AhR [2],7.76 nM
"Cc1ncc(-c2nc3c(c(NCCc4c[nH]c5ccccc45)n2)OCCN3)s1 [Example 7, N-[2-(1H-indol-3-yl)ethyl]-2-(2-methylthiazol-5-yl)-7,8-dihydro-6H-pyrimido[5,4-b][1,4]oxazin-4-amine]",IC50,AhR [1],9.55 nM
same,IC50,AhR [2],9.12 nM
"C[C@H]1COc2c(NCCc3c[nH]c4ccccc34)nc(-c3cncc(F)c3)nc2N1 [Example 8, (7S)-2-(5-fluoro-3-pyridyl)-N-[2-(1H-indol-3-yl)ethyl]-7-methyl-7,8-dihydro-6H-pyrimido[5,4-b][1,4]oxazin-4-amine]",IC50,AhR [1],1.05 nM
same,IC50,AhR [2],1.12 nM
"C[C@@H]1COc2c(NCCc3c[nH]c4ccccc34)nc(-c3cncc(F)c3)nc2N1 [Example 9, (7R)-2-(5-fluoro-3-pyridyl)-N-[2-(1H-indol-3-yl)ethyl]-7-methyl-7,8-dihydro-6H-pyrimido[5,4-b][1,4]oxazin-4-amine]",IC50,AhR [1],0.661 nM
same,IC50,AhR [2],0.513 nM
"Cc1ncsc1-c1nc2c(c(NCCc3c[nH]c4ccccc34)n1)OCCN2 [Example 10, N-[2-(1H-indol-3-yl)ethyl]-2-(4-methylthiazol-5-yl)-7,8-dihydro-6H-pyrimido[5,4-b][1,4]oxazin-4-amine]",IC50,AhR [1],8.13 nM
same,IC50,AhR [2],4.57 nM
"Cc1ncc(-c2nc3c(c(N(CCO)CCc4c[nH]c5ccccc45)n2)OCCN3)s1 [Example 11, 2-[2-(1H-indol-3-yl)ethyl-[2-(2-methylthiazol-5-yl)-7,8-dihydro-6H-pyrimido[5,4-b][1,4]oxazin-4-yl]amino]ethanol]",IC50,AhR [1],525 nM
same,IC50,AhR [2],91.2 nM
"CCc1nc(C)c(-c2nc3c(c(NCCc4c[nH]c5ccccc45)n2)OCCN3)s1 [Example 12, 2-(2-ethyl-4-methyl-thiazol-5-yl)-N-[2-(1H-indol-3-yl)ethyl]-7,8-dihydro-6H-pyrimido[5,4-b][1,4]oxazin-4-amine]",IC50,AhR [1],141 nM
same,IC50,AhR [2],89.1 nM
"c1ccc2c3c([nH]c2c1)CC[C@@H](Nc1nc(-c2nccs2)nc2c1OCCN2)C3 [Example 13, N-[(3R)-2,3,4,9-tetrahydro-1H-carbazol-3-yl]-2-thiazol-2-yl-7,8-dihydro-6H-pyrimido[5,4-b][1,4]oxazin-4-amine]",IC50,AhR [1],> 1780 nM
same,IC50,AhR [2],229 nM
"Cn1cc(-c2nc3c(c(NCCc4c[nH]c5ccccc45)n2)OCCN3)nn1 [Example 55, N-[2-(1H-indol-3-yl)ethyl]-2-(1-methyltriazol-4-yl)-7,8-dihydro-6H-pyrimido[5,4-b][1,4]oxazin-4-amine]",IC50,AhR [1],> 2000 nM
"Cn1cc(-c2nc3c(c(NCCc4c[nH]c5ccccc45)n2)OCCN3)ccc1=O [Example 58, 5-[4-[2-(1H-indol-3-yl)ethylamino]-7,8-dihydro-6H-pyrimido[5,4-b][1,4]oxazin-2-yl]-1-methyl-pyridin-2-one]",IC50,AhR [2],347 nM
"COc1ncc(F)cc1-c1nc2c(c(N[C@@H]3CCc4[nH]c5ccccc5c4C3)n1)OCCN2 [Example 65, 2-(5-fluoro-2-methoxy-3-pyridyl)-N-[(3R)-2,3,4,9-tetrahydro-1H-carbazol-3-yl]-7,8-dihydro-6H-pyrimido[5,4-b][1,4]oxazin-4-amine]",IC50,AhR [2],> 813 nM
"COc1ncc(F)cc1-c1nc2c(c(NCCc3c[nH]c4ccccc34)n1)OCCN2 [Example 67, 2-(5-fluoro-2-methoxy-3-pyridyl)-N-[2-(1H-indol-3-yl)ethyl]-7,8-dihydro-6H-pyrimido[5,4-b][1,4]oxazin-4-amine]",IC50,AhR [2],66.1 nM
"Cc1c[nH]c(=O)c(-c2nc3c(c(NCCc4c[nH]c5ccccc45)n2)OCCN3)c1 [Example 68, 3-[4-[2-(1H-indol-3-yl)ethylamino]-7,8-dihydro-6H-pyrimido[5,4-b][1,4]oxazin-2-yl]-5-methyl-pyridin-2-ol]",IC50,AhR [2],33.1 nM
"O=c1[nH]cc(C(F)(F)F)cc1-c1nc2c(c(NCCc3c[nH]c4ccccc34)n1)OCCN2 [Example 69, 3-(4-((2-(1H-indol-3-yl)ethyl)amino)-7,8-dihydro-6H-pyrimido[5,4-b][1,4]oxazin-2-yl)-5-(trifluoromethyl)pyridin-2 (1H)-one]",IC50,AhR [2],81.3 nM
"O=c1[nH]cc(Cl)cc1-c1nc2c(c(NCCc3c[nH]c4ccccc34)n1)OCCN2 [Example 72, 3-(4-((2-(1H-indol-3-yl)ethyl)amino)-7,8-dihydro-6H-pyrimido[5,4-b][1,4]oxazin-2-yl)-5-chloropyridin-2-ol]",IC50,AhR [2],14.8 nM
